Measured values taken from US20250205349A1, “ANTI-HUMAN TROP2 ANTIBODY-CAMPTOTHECIN DRUG CONJUGATE AND MEDICAL USE THEREOF” (SYSTIMMUNE, INC., priority 2021, published 2025).
Read-outs that look alike come from different tables or passages of the source. Starred links: 1 amine or outer side, 2 acyl side, 3 side chain; linkers in the order of their positions; H or OH if unused. Non-standard residues stand in square brackets, D forms with d. Residues, ends and D or L forms follow the SMILES beside them. *: point of attachment. Exatecan = CC[C@@]1(O)C(=O)OCc2c1cc1n(c2=O)Cc2c-1nc1cc(F)c(C)c3c1c2[C@@H](N*)CC3; X1 = O=C(O)CNC[C@@H](C(=O)*)N1C(=O)C=CC1=O; X2 = C[C@H](OCN[*:1])C(=O)[*:2]

Assays:
[1] = system: Human non-small cell lung adenocarcinoma cell H1975; test: In vitro inhibitory effect of Compound 5A, MTS; format: cell-based
Description: (§1) The UV light of the biosafety cabinet was turned on 30 min in advance, and then the ventilation system was enabled for 3 min. The growth medium, the detection medium, D-PBS and trypsin were preheated in a 37° C. constant-temperature water bath, and then had surface disinfected with alcohol and then placed in the biosafety cabinet. The cells with a confluence rate of about 80% were placed in the biosafety cabinet, the old culture medium was removed, the cells were rinsed with D-PBS, and the D-PBS was then discarded. The cells were digested with trypsin for 2-3 min, then neutralized with the growth medium and centrifuged at 1200 rpm for 3 min, and the supernatant was removed. The cell solution was mixed with 4 mL of test medium, and 100 μL of cell solution was taken for counting (where 50 μL of cell solution was well mixed with 50 μL of Trypan Blue Stain and then counted). According to a pre-optimized cell plating density, the cells were plated in a 96-well plate at 80 ul/well. […] After 24 hours of plating, diluted antibodies were added with 20 uL per well and control was set. Only 20 μL of test medium was added to cells in column 11. Two duplicate wells were set at each concentration. The cells were then well mixed on the cell vortex shaker at 550 rpm for 3 min.
(§2) 240 μL of test medium was added to the subsequent columns 2 to 10. 60 μL of the well mixed test solution was taken from the first column and added to the second column, and the cell solution was mixed up and down with a pipette for 10 times, and then the pipette tip was discarded. The same operation was performed for other seven concentrations one by one.
(§3) After 4 days, the MTS reagent was taken out, thawed at room temperature in the dark, and vortex mixed thoroughly. In the biosafety cabinet, 20 μL of CellTiter One Solution Reagen MTS reagent was added per 100 μL cell culture volume along the side wall of each well, and the plate surface was gently tapped to well mix the MTS solution. The cells were incubated for 2 h in the dark in an incubator. After the reaction, the 96-well plate was taken out for testing the OD490 nm absorption on an elisa plate, and the test data were recorded, organized, analyzed and stored.

[2] = system: human breast cancer cell MDA-MB-361; test: In vitro inhibitory effect of Compound 5A, MTS; format: cell-based
Description: as §1, §2, §3

[3] = system: human breast cancer cell SK-BR-3; test: In vitro inhibitory effect of Compound 5A, MTS; format: cell-based
Description: as §1, §2, §3

[4] = system: human breast cancer cell ZR-75-1; test: In vitro inhibitory effect of Compound 5A, MTS; format: cell-based
Description: as §1, §2, §3

[5] = system: human epidermal cancer cell A431 + human colon cancer cell SW620; test: In vitro inhibitory effect of Compound 5A, MTS; format: cell-based
Description: as §1, §2, §3

[6] = system: human epidermal cancer cell A431; test: In vitro inhibitory effect of Compound 5A, MTS; format: cell-based
Description: as §1, §2, §3

[7] = system: human gastric cancer cell NCI-N87; test: In vitro inhibitory effect of Compound 5A, MTS; format: cell-based
Description: as §1, §2, §3

[8] = system: human leukemia cell JJN-3; test: In vitro inhibitory effect of Compound 5A, MTS; format: cell-based
Description: as §1, §2, §3

[9] = system: human multiple myeloma cell RPMI8226; test: In vitro inhibitory effect of Compound 5A, MTS; format: cell-based
Description: as §1, §2, §3

[10] = system: human non-small cell lung cancer cell HCC827; test: In vitro inhibitory effect of Compound 5A, MTS; format: cell-based
Description: as §1, §2, §3

[11] = system: human orthotopic pancreatic adenocarcinoma cell BXPC-3; test: In vitro inhibitory effect of Compound 5A, MTS; format: cell-based
Description: as §1, §2, §3

[12] = system: human plasma cell leukemia cell H929; test: In vitro inhibitory effect of Compound 5A, MTS; format: cell-based
Description: as §1, §2, §3

Fadu = test: In vitro efficacy of naked antibodies and Compound d3, d38, d39 and d44, MTS; format: cell-based; conditions: Homo sapiens, 1 uM starting concentration
Description: (§4) In a 96-well plate, cells were plated at an appropriate cell density. After 24 h, the drugs were added. After 24 h, the drugs were diluted with the test medium (1 uM starting concentration, 5-fold dilution, 9 concentrations, test medium was added in the tenth column as blank control). The diluted drugs were added to the corresponding cell wells and then shaken for 3 min with a microplate shaker (model: MX100-4A) at a shaking speed of 550 rpm/min. After shaking, the cells were incubated in a carbon dioxide incubator for […].
(§5) After 4 days, the MTS reagent was taken out, thawed at room temperature in the dark, and vortex mixed thoroughly. […] The cells were incubated for 2 h in the dark in an incubator. After the reaction, the 96-well plate was taken out for testing the OD490 nm absorption on an elisa plate, and the test data were recorded, organized, analyzed and stored.

HCC827 = test: as above; format: cell-based; conditions: Homo sapiens, 1 uM starting concentration
Description: as §4, §5

N87 = test: as above; format: cell-based; conditions: Homo sapiens, 1 uM starting concentration
Description: as §4, §5

SW620 + A431 = test: as above; format: cell-based; conditions: Homo sapiens, 1 uM starting concentration
Description: as §4, §5

SW620 = test: as above; format: cell-based; conditions: Homo sapiens, SW-620, 1 uM starting concentration
Description: as §4, §5

[13] = Percentage of monomer of ADCs by SEC-HPLC; format: physicochemical
Description: • Chromatography column: Biocore SEC-300 5 μm, 4.6×300 mm; • Manufacturer: NanoChrom, Product code: B213-050030-04630S; • Mobile phase: 50 mM PB+300 mM NaCl+200 mM Arg+5% IPA, pH=6.5;
• Chromatography column: ACQUITY UPLC Protein SEC 4.6×150 mm […] • Manufacturer: waters Product code: 186005225 • Mobile phase: 50 mM PB+300 mM NaCl+200 mM Arg+5% IPA, pH=6.5

[14] = Description: The mixture of an ADC and IgG-depleted plasma were formulated with the final concentration of ADC being 0.6 mg/mL. The plasma mixture was incubated in a water bath box in a 37° C. incubator. The incubation time was set to 0 days, 3 days, and 7 days. At the same time, the unincubated plasma control was set. The incubated sample was purified and extracted and then tested for the DAR to reflect the stability of the ADC in plasma.
[15] = target: T1, recombinant TROP2-His*6 antigen (Homo sapiens, UniProt P09758); test: Double-antigen sandwich ELISA, relative affinity to TROP2; format: binding; conditions: OD450 nm, EC50 compared
T1 construct: His*6
T1 sequence (P09758 27-323): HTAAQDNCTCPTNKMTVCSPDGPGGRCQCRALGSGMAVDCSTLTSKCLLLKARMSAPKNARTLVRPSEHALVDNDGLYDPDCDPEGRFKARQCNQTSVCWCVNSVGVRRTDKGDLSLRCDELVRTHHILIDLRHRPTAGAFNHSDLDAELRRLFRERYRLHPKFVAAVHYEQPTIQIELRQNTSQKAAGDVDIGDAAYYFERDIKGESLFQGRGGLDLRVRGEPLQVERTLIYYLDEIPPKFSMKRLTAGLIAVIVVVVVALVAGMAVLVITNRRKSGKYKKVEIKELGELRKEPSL
Description: The recombinant TROP2-His*6 antigen was coated on the plate and then blocked with 1% bovine serum albumin; hu4D3 and the corresponding ADC and TINA1 and the corresponding ADC were diluted respectively, and then serially diluted 3 folds at a starting concentration of 2000 ng/mL respectively, for a total of 11 concentrations. After the sample was incubated on the coated elisa plate for a period of time, the secondary antibody labeled by goat anti-human Fc-HRP was added for incubation. Finally, TMB color development was performed and terminated by sulfuric acid solution, and the absorption value at 450 nm was detected on an elisa plate. The results are plotted on concentration at OD450 nm.

[16] = system: human tumor cell line (BxPC-3); test: In vitro drug efficacy of antibodies and ADCs, MTS cell viability; format: cell-based; conditions: BxPC-3, 5 days
Description: In the present invention, a human tumor cell line (BxPC-3) was used as an experimental model to evaluate the in vitro efficacy of ADCs. A certain number of tumor cells were inoculated into a 96-well plate, and gradient dilutions of the test antibody and the corresponding ADC were added to the cells, the cells were treated for 5 days, cell viability was detected by using MTS, and IC50 was calculated to evaluate the in vitro inhibitory effect of the test antibody and ADCs on the tumor cell line. The cells were treated for 5 days with the antibody drugs having initial concentration of 500 nM, diluted 7 folds, with a total of 8 concentration points. Finally, the cell survival was calculated as: survival rate=(experimental group-blank group)/(control group-blank group)×100%. Then, by using Graph Pad Prism, the curve was fitted and the half inhibitory concentration (IC50) was calculated.

[17] = humans; cited from earlier work
[18] = mice; cited from earlier work
[19] = in vivo; cited from earlier work

CC[C@@]1(O)C(=O)OCc2c1cc1n(c2=O)Cc2c-1nc1cc(F)c(C)c3c1c2[C@@H](NC(=O)[C@H](C)OCNC(=O)CNC(=O)[C@H](Cc1ccccc1)NC(=O)CNC(=O)CNC(=O)[C@H](CNCC(=O)O)N1C(=O)C=CC1=O)CC3 [Compound 5A] (X1-GGFG[X2]-Exatecan)
Efficacy % ([1]; H1975): 76.78%
IC50 ([1]; Homo sapiens, NCI-H1975, 96 h, H1975, 4 days, MTS): 970 nM
IC50 ([2]; Homo sapiens, 96 h, MDA-MB-361, 4 days, MTS): 572 nM
Efficacy % ([2]; MDA-MB-361): 62.34%
IC50 ([3]; Homo sapiens, 96 h, SK-BR-3, 4 days, MTS): 732 nM
Efficacy % ([3]; SK-BR-3): 70.9%
IC50 ([4]; Homo sapiens, 96 h, ZR-75-1, 4 days, MTS): 558 nM
Efficacy % ([4]; ZR-75-1): 54.79%
Efficacy % ([5]; A431 + SW620): 68.26%
IC50 ([5]; Homo sapiens, 96 h, A431 + SW620, 4 days, MTS): 605 nM
Efficacy % ([6]; A431): 84.97%
IC50 ([6]; Homo sapiens, A-431, 96 h, A431, 4 days, MTS): 439 nM
IC50 ([7]; Homo sapiens, 96 h, NCI-N87, 4 days, MTS): 1020 nM
Efficacy % ([7]; NCI-N87): 63.93%
IC50 ([8]; Homo sapiens, 96 h, JJN-3, 4 days, MTS): 36.1 nM
Efficacy % ([8]; JJN-3): 80.59%
IC50 ([9]; Homo sapiens, RPMI-8226, 96 h, RPMI8226, 4 days, MTS): 147 nM
Efficacy % ([9]; RPMI8226): 93.61%
Efficacy % ([10]; HCC827): 80.57%
IC50 ([10]; Homo sapiens, 96 h, HCC827, 4 days, MTS): 656 nM
Efficacy % ([11]; BxPC-3): 64.4%
IC50 ([11]; Homo sapiens, 96 h, BxPC-3, 4 days, MTS): 320 nM
Efficacy % ([12]; H929): 99.03%
IC50 ([12]; Homo sapiens, NCI-H929, 96 h, H929, 4 days, MTS): 23.9 nM

CC[C@@]1(O)C(=O)OCc2c1cc1n(c2=O)Cc2c-1nc1cc(F)c(C)c3c1c2[C@@H](NC(=O)[C@H](C)O)CC3 [d3]
IC50 (Fadu): 0.531 nM
IC50 (HCC827): 0.778 nM
IC50 (N87): 1.61 nM
IC50 (SW620 + A431): 2.81 nM
IC50 (SW620): 0.543 nM

CC[C@@]1(O)C(=O)OCc2c1cc1n(c2=O)Cc2c-1nc1cc(F)c(C)c3c1c2[C@H](NC(=O)[C@@H](O)C1CC1)CC3 [d39]
IC50 (Fadu): 0.11 nM
IC50 (HCC827): 0.092 nM
IC50 (N87): 0.466 nM
IC50 (SW620 + A431): 0.468 nM
IC50 (SW620): < 0.005 nM

CC[C@@]1(O)C(=O)OCc2c1cc1n(c2=O)Cc2c-1nc1cc(F)c(C)c3c1c2[C@H](NC(=O)C1(CO)CCC1)CC3 [d44]
IC50 (Fadu): 0.029 nM
IC50 (HCC827): 0.038 nM
IC50 (N87): 0.197 nM
IC50 (SW620 + A431): 0.182 nM
IC50 (SW620): 0.014 nM

DS1062a (DAR = 4)
Aggregate % [13]: 3.431%
Degradation % [13]: 0.108%
Monomer % [13]: 96.461%
DAR Incubated in plasma for 0 days ([14]; ADC 0.6 mg/mL in IgG-depleted plasma, 37° C., 0 days): 4.21
DAR Incubated in plasma for 3 days ([14]; ADC 0.6 mg/mL in IgG-depleted plasma, 37° C., 3 days): 3.75
DAR Incubated in plasma for 7 days ([14]; ADC 0.6 mg/mL in IgG-depleted plasma, 37° C., 7 days): 3.30
DAR Unincubated ([14]; unincubated control): 4.13

DS1062a [reference compound]
plasma stability (in words) ([14]; change in DAR during incubation in plasma): poor plasma stability
affinity for antigen TROP2 compared with the corresponding antibody [15]: maintains the same affinity
IC50 [16]: 308 nM

IMMU-132
elimination half-life [17]: about 11 h
elimination half-life [18]: about 11 h
mean residence time [19]: about 15.4 h
